Measurements reported in patent publication US8809377B2, “Deubiquitinase inhibitors and methods for use of the same” (The Regents of the University of Michigan, priority 2010, dated 2014).
“Also recorded” adds a separate entry of the source.

Key:
UCH37 = biological target: T1, UCH37 (Homo sapiens, UniProt Q9Y5K5); experiment: HA-UbVs labeling of UCH37; type: cell-based; settings: Z138 cells, 1, 5 or 10 μM, 1 hour
T1 construct: endogenous in cells; host or cells: Z138
Experimental: To assay for changes in activity of cellular deubiquitinase enzymes, Z138 and HEK293 cells were lysed in DUB buffer (50 mM Tris pH 7.4, 5 mM MgCl2, 150 mM NaCl) for 10 min at 4° C. The lysates were centrifuged at 20,000 RFC for 10 min and the supernatant was used for DUB labeling. Equal amounts of lysate were incubated with 500 ng of HA-UbVs for 1 hr at room temperature, followed by boiling in reducing sample buffer and resolving by SDS-PAGE. After protein transfer to nitrocellulose membranes, HA immunoblotting was used to detect DUB labeling.
Hemagglutinin-tagged ubiquitin vinyl methyl sulfone (HA-UbVs) acts as a DUB suicide substrate, forming a covalent adduct with active DUB enzymes. Specific cellular DUBs can be identified by anti-HA blotting, as previously shown in various cell types. Changes in specific DUB activities are measurable by monitoring HA-labeling in lysates from control and treated cells. Z138 cells were treated with WP1130 at 1, 5, or 10 μM or AG490 at 250 μM for 1 hours and lysed. 20 μg of clarified supernatant was incubated with 200 nM of HA-UbVS for 1 hr at 37° C. […] An in vitro analysis using cell lysates was performed to investigate direct DUB inhibition by WP1130. Briefly, untreated Z138 cell lysates were incubated with 5 μM WP1130 or vehicle alone for one hour at 37° C., followed by labeling with HA-UbVs.

Mcl1 = experiment: Western blot of Mcl-1 levels; type: cell-based
Experimental: (§1) Total cell lysates were prepared by boiling and sonicating cell pellets in 1× Laemmli reducing sample buffer. To prepare detergent soluble and insoluble fractions, cells were lysed in cold isotonic lysis buffer [10 mM Tris-HCl (pH 7.5), 0.5% Triton X-100, 150 mM NaCl along with Mini-Complete and PhosSTOP] for 15 min on ice and centrifuged 10 min at 20,000 RCF. The clarified supernatant was used as the detergent soluble cell fraction. The residual pellet was washed and extracted in Laemmli reducing sample buffer and briefly sonicated to derive the detergent insoluble fraction. Equal volumes of cellular lysate or equal protein amounts were electrophoresed on SDS-PAGE gels and transferred to nitrocellulose membranes (Whatmann, Dassel, Germany). Proteins were detected by immunoblotting.
Whole cell lysates were prepared by boiling and sonicating the cell pellets in 1× Laemmli reducing sample buffer. To prepare detergent soluble and insoluble fractions, cells were lysed in cold isotonic lysis buffer [10 mM Tris-HCl (pH 7.5), 0.5% Triton X-100, 150 mM NaCl along with Mini-Complete and PhosSTOP] for 15 min on ice and centrifuged 10 minutes at 20,000 RCF. The clarified supernatant was used as a source of the detergent soluble cell fraction. The detergent insoluble fraction was extracted by the sonication of residual pellet in equal volumes of boiling 1× Laemmli reducing sample buffer. […]

[1] = system: Encephalomyocarditis virus; experiment: Encephalomyocarditis virus plaque assay; settings: 5 μM, 30 min pre-treatment, listed as HWP1130
cellular DUB activity = experiment: DUB activity of lysates from treated cells (Ub-AMC, Ub chain disassembly); type: cell-based
Experimental: Cells were lysed in ice cold DUB buffer containing 50 mM Tris-HCl, pH 7.5, 0.5% NP-40, 5 mM MgCl2, 150 mM NaCl and 1 mM phenylmethylsulfonylfluoride. Briefly, 5 μg of clarified lysate from untreated or treated cells was incubated with 500 nM Ub-AMC in a 100 μL reaction volume at 37° C. and the release of AMC fluorescence was recorded at ex/em 380/480 using a spectrofluorometer. USP9x was immunoprecipitated from 500 μg of cell lysate and incubated in DUB buffer containing NEM, WP1130 or DMSO in a 100 μL reaction volume for 30 min. The reaction was initiated by the addition of 500 nM Ub-AMC and the release of AMC-fluorescence was recorded.
In vitro disassembly of purified polyubiquitin chains (K-48/K-63 linked) was performed as previously described. Five μg of lysate from untreated or WP1130 treated cells were prepared in DUB buffer and incubated with K48- or K-63 linked chains (1 μg) for 10 min at 37° C. The extent of chain disassembly was assessed by ubiquitin immunoblotting.
Inhibition of cellular deubiquitinases could lead to an increase in high molecular weight ubiquitinated proteins in the absence of proteasome inhibition. […] To directly assess the impact of WP1130 on DUB activity in treated cells, cell lysates from control and treated cells were incubated with ubiquitin-AMC and fluorescence generated as a consequence of substrate cleavage was measured as an indicator of DUB activity.
The effect of WP1130 treatment on in vitro deubiquitination/disassembly of purified K48-linked or K63-linked polyubiquitin chains was evaluated. Lysates from WP1130 treated (2 hr) or untreated cells were incubated with 1 μg of unanchored polyubiquitin chains for 5, 10 and 15 min at 37° C.

pStat5 = experiment: Western blot of pStat5; type: cell-based; settings: BV-173 cells, 5 μM, 1 or 2 hours
Experimental: as §1
Cancer Res, 2010. 70(22): p. […] Blood, 2011. 117(11): p. […] Biochem Pharmacol, 2011. 82(4): p. […] Blood, 2007. 109(8): p. 3470-8.

20S proteasome = biological target: T2, 20S proteasome (Homo sapiens, UniProt P28074); experiment: Proteasome activity assay in treated cells (Suc-LLVY-AMC); type: cell-based; settings: 5 μM, 2 hr
T2 construct: endogenous in cells; host or cells: K562 and other CML lines, Z138
Experimental: Fluorogenic substrate Suc-LLVY-AMC was used to assay for the chymotryptic-like activity of the 20S proteasome. To assay for in vivo proteasome inhibition cells were treated with WP1130 (5 μM) or MG132 (5 μM) for 2 hours and lysed in ice-cold lysis buffer (50 mM HEPES, pH 7.5, 5 mM EDTA, 150 mM NaCl, 1% Triton X-100). Lysates were clarified by centrifugation at 20,000 RCF for 10 min and equal amounts of protein from each sample were incubated at 37° C. with 100 μM fluorogenic substrate. To assay for direct inhibition of the 20S proteasome in vitro, purified 20S human proteasome (200 ng) was incubated with WP1130 (5 μM), MG132 (5 μM) or Lactacystin (5 μM) for 30 min at 37° C. before addition of the substrates. Fluorescence intensity was measured using a spectrophotometer at excitation 360 nm & emission 460 nm. Assays were performed in triplicate, and statistical significance was determined with a paired Student's t test.

T2 sequence (P28074 60-263): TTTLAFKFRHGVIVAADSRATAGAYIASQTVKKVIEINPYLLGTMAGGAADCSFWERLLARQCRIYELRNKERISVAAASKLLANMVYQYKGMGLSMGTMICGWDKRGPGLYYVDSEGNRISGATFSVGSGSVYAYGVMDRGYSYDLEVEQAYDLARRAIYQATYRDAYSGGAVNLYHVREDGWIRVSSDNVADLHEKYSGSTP
T1 sequence (Q9Y5K5 whole entry): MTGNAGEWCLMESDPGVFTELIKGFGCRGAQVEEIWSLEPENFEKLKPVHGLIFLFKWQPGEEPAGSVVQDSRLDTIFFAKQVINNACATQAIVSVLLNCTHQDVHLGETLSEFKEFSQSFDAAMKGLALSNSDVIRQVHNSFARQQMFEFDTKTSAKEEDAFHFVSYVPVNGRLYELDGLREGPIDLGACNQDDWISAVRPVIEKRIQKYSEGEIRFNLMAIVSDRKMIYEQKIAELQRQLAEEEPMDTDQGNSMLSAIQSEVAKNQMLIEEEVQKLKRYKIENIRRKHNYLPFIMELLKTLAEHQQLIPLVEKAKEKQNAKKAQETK

## CCC[C@H](NC(=O)/C(C#N)=C/c1cccc(Br)n1)c1ccccc1 [WP1130]
UCH37
  HA-UbVS labeling of UCH37: dose-dependent and time reduction in the labeling
Mcl1; Z138 cells
  MCL-1 levels: rapid decline
Mcl1; imatinib sensitive and resistant CML cells
  Mcl-1 levels: reduced
[1]
  Log inhibition by plaque assay: 2 log
Cellular DUB activity; CML cells, WP1130 1-8 hours
  Ub-AMC hydrolyzing activity of lysates from treated cells: limited effects
Cellular DUB activity; Z138 cells, 5 μM WP1130 or 50 nM bortezomib, by 4 hours
  reduction of DUB activity (ubiquitin-AMC): ~50%
Cellular DUB activity; lysates from cells treated 2 hr
  disassembly of K48-/K63-linked polyubiquitin chains by lysates: limited disassembly
pStat5
  phosphorylation of Stat5: loss of phosphorylation of Stat5
20S proteasome
  20S proteasome chymotryptic-like activity in intact cells (in vivo): did not suppress; also recorded: no significant decline
